# Reference: article PMC6152131, “Pharmacokinetic Study of Biotransformation Products from an Anxiolytic Fraction of Tilia americana” (Molecules : A Journal of Synthetic Chemistry and Natural …, 2017)
# What was measured:
# [1] = Pharmacokinetic analysis, two-compartment model (PKSolver); assay type: in vivo, ICR mice; settings: two-compartment model
# Protocol: The data shown in Table 2 were applied to the program PKSolver. After a single oral administration of 200 mg/kg of the anxiolitic fraction of T. americana, the behavior of the concentration-time data allowed us to determine the main pharmacokinetic parameters under a two-compartment model (Table 3), and the same program provided the graphical behavior of the variables and the adjustment to the two-compartment model.
# To evaluate the suitability of the assay for the pharmacokinetic studies, 200 mg/kg of the active fraction was orally administered to the animals. Ten animals were used in each group at different times (0, 5, 10, 15, 30, 60, 120, 240, 480, 720, and 1440 min). Pharmacokinetic calculations were performed using the observed data. All data was subsequently processed using the PKSolver add-in program for Microsoft Excel written in Visual Basic for Applications. All values obtained were expressed in mean ± standard deviation.
# For the pharmacokinetic assay, the selection was made either from a one-compartment or a two-compartment model, with the use of both the Akaike information criterion (AIC) and the Schwarz criterion (SC). Using these two criteria, one can select which model is more suited to being adjusted, to the point where it reaches the lowest values of the AIC or SC criteria, which means that the chosen model is more parsimonious (less parameters required) and best fits the data (low error prediction).
# [2] = Plasma concentration after a single oral dose of the anxiolytic fraction (HPLC); assay type: in vivo, ICR mice; settings: mouse, plasma, ICR mice, n = 10
# Procedure, shortened: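 Animals dosed orally with 200 mg/kg of active fraction; retro-orbital blood taken from separate groups of ten at 0–1440 min. Lyophilized plasma extracted in methanol and analysed by RP-18 HPLC with diode-array detection at 220 nm against a calibration curve; PK parameters from observed data, mean ± SD.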
# [3] = Stability of flavonoids and biotransformation products in mouse plasma under different handling conditions; assay type: in vitro ADME, mice; settings: for Accuracy Bias 0 h / Observed Conc. 0 h / Accuracy Bias 8 h / Observed Conc. 8 h / Accuracy Bias 24 h / Observed Conc. 24 h: room temperature (25 °C); for Observed Conc. 0 h / Observed Conc. 8 h / Observed Conc. 24 h / Observed Conc. Autosampler (4 °C; 8 h) / Observed Conc. Long-term (−70 °C; 1 month): n = 6; for Accuracy Bias Autosampler (4 °C; 8 h) / Accuracy Bias Long-term (−70°C; 1 month) / Observed Conc. Autosampler (4 °C; 8 h) / Observed Conc. Long-term (−70 °C; 1 month): storage stability
# Procedure, shortened: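 Mouse plasma QC samples containing the flavonoids and their biotransformation products were tested for stability across storage and handling conditions, including long-term, autosampler and bench-top tests. Samples were extracted with methanol, filtered, and analyzed by HPLC on an RP-18e column with acetonitrile–water (55:45) at 1 mL/min and detection at λ = 220 nm. Results were compared against fresh QC samples; stability required deviation below 15%.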
# [4] = mouse, oral 200 mg/kg anxiolytic fraction, ICR mice plasma
# [5] = oral 200 mg/kg anxiolytic fraction, ICR mice plasma
# [6] = oral 200 mg/kg anxiolytic fraction, ICR mice plasma, n = 10
# [7] = high nominal conc. (7.00; 44.37; 4.50; 31.25 µg/mL)
# [8] = low nominal conc. (1.75; 11.02; 1.12; 1.95 µg/mL)
# [9] = medium nominal conc. (3.50; 22.18; 2.24; 7.81 µg/mL)
structure (smiles),measurement,setting,value
"O=C(O)Cc1ccc(O)cc1 [p-HPAA, para-hydroxyphenylacetic acid]",AUC(0-inf),[1]; [4],183 µg·h/mL
same,Cmax,[1]; [4],6260 ng/mL
same,Tmax,[1]; [4],11.2 min
same,AUC(0-t),"[1]; mouse, oral 200 mg/kg anxiolytic fraction, ICR mice plasma, read-out: AUC0→1440 (converted)",73700 ng·h/mL
same,MRT,"[1]; mouse, oral 200 mg/kg anxiolytic fraction, ICR mice plasma, read-out: MRT (mean residence time) (converted)",47.2 h
same,k el,"[1]; mouse, oral 200 mg/kg anxiolytic fraction, ICR mice plasma, read-out: k10 (apparent first-order elimination rate constant from the central compartment) (converted)",1e-05 s⁻¹
same,half-life,"[1]; mouse, oral 200 mg/kg anxiolytic fraction, ICR mice plasma, read-out: t1/2β",1990 min
same,CL/F (apparent clearance),[1]; [5],0.018 (mg/Kg)/(μg/mL)/min
same,V/F (apparent volume of distribution),[1]; [5],29.46 (mg/Kg)/(µg/mL)
same,k12 (transfer rate constant central to peripheral compartment),[1]; [5],0.007 min⁻¹
same,k21 (transfer rate constant peripheral to central compartment),[1]; [5],0.009 min⁻¹
same,ka (apparent first-order absorption rate constant),[1]; [5],0.36 min⁻¹
same,t1/2ka (absorption half time),[1]; [5],1.92 min
same,t1/2α,[1]; [5],42.25 min
same,α,[1]; [5],0.02 min⁻¹
same,β,[1]; [5],0.0003 min⁻¹
same,"A (plasma concentration coefficient, central compartment)",[1]; [6],3.19 µg/mL
same,"B (plasma concentration coefficient, peripheral compartment)",[1]; [6],3.75 µg/mL
same,index: relation between rate constants of k12 with respect to k21,[1],0.77
same,concentration at 5 min,"[2]; 5 min after single oral dose of 200 mg/kg of the anxiolytic fraction, ND = not detected",5400 ± 360 ng/mL
same,concentration at 10 min,[2]; 10 min after single oral dose of 200 mg/kg of the anxiolytic fraction,6710 ± 440 ng/mL
same,concentration at 15 min,[2]; 15 min after single oral dose of 200 mg/kg of the anxiolytic fraction,6010 ± 330 ng/mL
same,concentration at 30 min,[2]; 30 min after single oral dose of 200 mg/kg of the anxiolytic fraction,5380 ± 510 ng/mL
same,concentration at 60 min,[2]; 60 min after single oral dose of 200 mg/kg of the anxiolytic fraction,5310 ± 540 ng/mL
same,concentration at 120 min,[2]; 120 min after single oral dose of 200 mg/kg of the anxiolytic fraction,5290 ± 320 ng/mL
same,concentration at 240 min,[2]; 240 min after single oral dose of 200 mg/kg of the anxiolytic fraction,5150 ± 230 ng/mL
same,concentration at 480 min,[2]; 480 min after single oral dose of 200 mg/kg of the anxiolytic fraction,5080 ± 240 ng/mL
same,concentration at 720 min,[2]; 720 min after single oral dose of 200 mg/kg of the anxiolytic fraction,4990 ± 350 ng/mL
same,concentration at 1440 min,[2]; 1440 min after single oral dose of 200 mg/kg of the anxiolytic fraction,4910 ± 210 ng/mL
same,Accuracy Bias 0 h,[3]; high nominal conc.,1.64%
same,Observed Conc. 0 h,"[3]; high nominal conc. (rutin 7.00; quercetin glucoside, quercitrin, tiliroside 44.37; kaempferol 4.50; m-HPAA, p-HPAA, DOPAC 31.25 µg/mL)",31.76 ± 0.28 µg/mL
same,Accuracy Bias 0 h,[3]; low nominal conc.,1.44%
same,Observed Conc. 0 h,"[3]; low nominal conc. (rutin 1.75; quercetin glucoside, quercitrin, tiliroside 11.02; kaempferol 1.12; m-HPAA, p-HPAA, DOPAC 1.95 µg/mL)",1.92 ± 0.02 µg/mL
same,Accuracy Bias 0 h,[3]; medium nominal conc.,0.65%
same,Observed Conc. 0 h,"[3]; medium nominal conc. (rutin 3.50; quercetin glucoside, quercitrin, tiliroside 22.18; kaempferol 2.24; m-HPAA, p-HPAA, DOPAC 7.81 µg/mL)",7.86 ± 0.11 µg/mL
same,Accuracy Bias 8 h,[3]; high nominal conc.,1.26%
same,Observed Conc. 8 h,[3]; [7],31.64 ± 0.28 µg/mL
same,Accuracy Bias 8 h,[3]; low nominal conc.,1.40%
same,Observed Conc. 8 h,[3]; [8],1.92 ± 0.02 µg/mL
same,Accuracy Bias 8 h,[3]; medium nominal conc.,2.05%
same,Observed Conc. 8 h,[3]; [9],7.94 ± 0.11 µg/mL
same,Accuracy Bias 24 h,[3]; high nominal conc.,1.26%
same,Observed Conc. 24 h,[3]; [7],31.64 ± 0.31 µg/mL
same,Accuracy Bias 24 h,[3]; low nominal conc.,0.85%
same,Observed Conc. 24 h,[3]; [8],1.93 ± 0.01 µg/mL
same,Accuracy Bias 24 h,[3]; medium nominal conc.,1.01%
same,Observed Conc. 24 h,[3]; [9],7.89 ± 0.05 µg/mL
same,Accuracy Bias Autosampler (4 °C; 8 h),[3]; high nominal conc.,1.40%
same,Accuracy Bias Long-term (−70°C; 1 month),[3]; high nominal conc.,0.85%
same,Observed Conc. Autosampler (4 °C; 8 h),[3]; [7],31.64 ± 0.28 µg/mL
same,Observed Conc. Long-term (−70 °C; 1 month),[3]; [7],31.64 ± 0.28 µg/mL
same,Accuracy Bias Autosampler (4 °C; 8 h),[3]; low nominal conc.,1.26%
same,Accuracy Bias Long-term (−70°C; 1 month),[3]; low nominal conc.,1.26%
same,Observed Conc. Autosampler (4 °C; 8 h),[3]; [8],1.93 ± 0.02 µg/mL
same,Observed Conc. Long-term (−70 °C; 1 month),[3]; [8],1.92 ± 0.01 µg/mL
same,Accuracy Bias Autosampler (4 °C; 8 h),[3]; medium nominal conc.,2.05%
same,Accuracy Bias Long-term (−70°C; 1 month),[3]; medium nominal conc.,1.01%
same,Observed Conc. Autosampler (4 °C; 8 h),[3]; [9],7.89 ± 0.11 µg/mL
same,Observed Conc. Long-term (−70 °C; 1 month),[3]; [9],7.97 ± 0.05 µg/mL
